One assay addresses T1, ALK5 (Homo sapiens, UniProt P36897).
T1 sequence (P36897 34-503): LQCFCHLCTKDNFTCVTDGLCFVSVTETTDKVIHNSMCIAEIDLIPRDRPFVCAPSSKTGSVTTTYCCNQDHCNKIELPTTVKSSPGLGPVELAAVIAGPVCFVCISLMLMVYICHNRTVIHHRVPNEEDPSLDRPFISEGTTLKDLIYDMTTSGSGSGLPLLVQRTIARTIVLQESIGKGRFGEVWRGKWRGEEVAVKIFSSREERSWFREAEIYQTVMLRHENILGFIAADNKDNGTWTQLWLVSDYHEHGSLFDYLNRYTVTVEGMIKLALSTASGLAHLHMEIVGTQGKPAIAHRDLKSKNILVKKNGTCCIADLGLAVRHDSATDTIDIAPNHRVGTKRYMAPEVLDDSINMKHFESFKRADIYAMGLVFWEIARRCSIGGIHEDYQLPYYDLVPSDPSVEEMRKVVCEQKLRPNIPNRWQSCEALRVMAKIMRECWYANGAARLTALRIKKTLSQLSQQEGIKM
The assay is described as follows: LanthaScreen Eu Kinase Binding Assay, ALK5. The following applies: 10-point titration, read-out: Kinase Inhibition: ALK5 IC50 (Lantha). As to the method:
Selected compounds of the present disclosure were assayed for inhibitory activity against ALK5 and ALK2. Activity determinations and selectivity were conducted by Thermo Fisher Scientific SelectScreen™ Biochemical Kinase Profiling Service using their LanthaScreen™ Eu Kinase Binding Assay Screening.
Binding of an Alexa Fluor™ conjugate or “tracer” to a kinase is detected by addition of a Eu-labeled anti-tag antibody. Binding of the tracer and antibody to a kinase results in a high degree of FRET, whereas displacement of the tracer with a kinase inhibitor results in a loss of FRET. This assay is carried out by mixing the compound tested with the reagents and reading; no development step is required.
Life Technologies' Kinase Tracers are based on ATP-competitive kinase inhibitors, making them suitable for detection of any compounds that bind to the ATP site. Inhibitors that bind the ATP site include both Type I kinase inhibitors, which bind solely to the ATP site, and Type II inhibitors (e.g., Gleevec®/Imatinib, Sorafenib, BIRB-796), which bind to both the ATP site and a second site often referred to as the allosteric site.
The test compounds were screened in 1% DMSO (final) in the well. For 10-point titrations, 3-fold serial dilutions were conducted from the starting concentration (see Table 2 below).
All Kinase/Antibody Mixtures were diluted to a 2× working concentration in the specified kinase buffer. The 4× AlexaFluor labeled Tracer was prepared in Kinase Buffer.
• Bar-coded, low volume, white, 384-well plate (Greiner Cat. #784207) • 1. 160 nL—100× Test Compound in 100% DMSO • 2. 3.84 μL—Kinase Buffer • 3. 8.0 μL—2× Kinase/Antibody Mixture • 4. 4.0 μL—4× Tracer • 5. 30-second plate shake • 6. 60-minute incubation at room temperature • 7. Read on fluorescence plate reader and analysis of the data
The following controls were made for each individual kinase and were located on the same plate as the kinase:
100% Displacement Control: The minimum Emission Ratio was established by the 100% Displacement Control wells, which contained the highest concentration of the known inhibitor used in that assay.
Known Inhibitor: A known inhibitor control standard curve, 10-point titration, was run for each individual kinase on the same plate as the kinase to ensure the inhibitor was displaced within an expected IC50 range previously determined.
The following equations were used for each set of data points: […]
Data generated were plotted using the graphing software XLfit from IDBS. The dose response curve was curve fit to model number 205.
A general note: Time-resolved FRET reads energy transfer from a long-lived donor to a nearby acceptor.

Assay [1] has as its system TGF-β1-induced SMAD signaling pathway. Briefly: RD SMAD reporter (RDSR) assay. The class given is cell-based. To be noted: Homo sapiens; 200 pg/ml rhTGF-beta1, 24 h. The text has this:
TGF-beta (also referred to as TGF-β1) is a multifunctional, highly conserved cytokine with many key functions in development, cell growth and apoptosis, and plays a key role in the tissue repair response and functions as a potent immune modulator. TGF-β signaling is triggered when the activated TGF-β homodimer binds to the TGF-β receptor 2, which in turn leads to the recruitment and phosphorylation of TGF-β receptor 1 (ALK5). Activated TGF-β receptor 1 phosphorylates the signal transduction molecules SMAD2 and SMAD3. These bind to common mediator SMAD4 and translocate to the nucleus where they bind to short conserved DNA sequences called the SMAD binding element and induce the transcription of various target genes.
A stable cellular reporter, the RD SMAD reporter (RDSR), was generated to test the ability of certain compounds disclosed herein to inhibit the canonical TGF-β1-induced SMAD signaling pathway in a cellular context. The RD SMAD reporter (RDSR) cell line was generated by stably integrating the SMAD cellular reporter plasmid (Promega, pGL4.48[luc2P/SBE/Hygro]) into the human rhabdomyosarcoma cell line RD (ATCC, CCL-136). Once SMAD signaling was triggered with, for example, the addition of TGF-beta1, receptor-activated SMADs bind the SMAD binding elements (SBEs) leading to the expression of intracellular luciferase.
The rhabdomyosarcoma line RD (ATCC, CCL-136) was transfected with a SMAD reporter vector (Promega, E3671) and a polyclonal stable cell line was selected using hygromycin B. The transfected vector contained three copies of a Smad-binding element (SBE) that drives transcription of the luciferase reporter gene luc2P (Photinus pyralis). luc2P is a synthetically-derived luciferase sequence with humanized codon optimization that is designed for high expression and reduced anomalous transcription. The luc2P gene contains hPEST, a protein destabilization sequence, which allows luc2P protein levels to respond more quickly than those of luc2 to induction of transcription. The intracellular luciferase is quantified by the addition of equal volume (100 μl) of ONE-GLO substrate (Promega, E6120) and read within ten minutes on the Envision plate reader. The stable RDSR cell line was tested by evaluating the response to human TGF-beta1 (R&D Systems, 7754-BH-005) as well as myostatin (R&D Systems, 788-G8-010/CF) in a concentration-dependent manner after twenty-four hours of stimulation. […] For compound evaluation, the tool compounds (vactosertib and PF-06952229 (a TGFβR1 inhibitor available from MedChem Express HY-136244) were included as positive controls) or test compounds were incubated with cells for one hour at 37° C. then stimulated with 200 pg/ml rhTGF-beta1 for twenty-four hours. The activity of the reporter was determined with the addition of ONE-GLO (Promega) substrate, and luminescence counts were collected on the Envision plate reader (Perkin Elmer). The IC50 or EC50 was calculated using nonlinear regression curve fitting with graph pad prism software.
A comparative RDSR analysis was performed using IC50 values for selected compounds and standards obtained using the RDSR assay protocol described in Example 3.
The tool compounds vactosertib (an ALK5 inhibitor sourced from MedChem Express, HY-19928) and PF-06952229 (a TGFβR1 inhibitor) were included in the study as comparator compounds. Selected example compounds or comparator compounds were incubated with cells for one hour at 37° C. then stimulated with 200 pg/ml rhTGF-beta1 for twenty-four hours. The activity of the reporter was determined by adding ONE-GLO (Promega) substrate, and collecting luminescence counts on the Envision plate reader (Perkin Elmer).
Each of the example compounds and comparator compounds were tested at drug concentrations of from 20 micromolar to 1 nanomolar, and the IC50 value for each was calculated using Graph Pad Prism software. DMSO was used as a negative control and all wells contained normalized DMSO concentrations. […]

The subject of the next assay is JAK signaling. Briefly: JAK selectivity assay, HEK blue IL-12 reporter. The class given is cell-based. To be noted: HEK-Blue, 24 h, 12.5 ng/ml IL-12, 24 h. As to the method: The cells were purchased from Invivogen (Catalog Nr: hkb-il12) and maintained according to vendor instructions. On the day of the experiment, cells were harvested by repeated tapping of the flask to shake loose the cells attached to the bottom of the flask. Then, cells were harvested, washed and resuspended in DMEM media supplemented with 10% fetal calf serum. 30 Microliters of cell suspension was seeded into a 384-well tissue culture-coated plate containing approximately 10,000 total cells. […] Using the ECHO “Dose Response” software, the test compound was added in duplicate wells with a 3-fold dilution curve. DMSO was back-filled to normalize the DMSO across all wells. […] After 30 minutes of incubation at room temperature, the optical density was measured at 620 nanometer using the Perkin Elmer Envision plate reader. A color change can be detected at this wavelength when secreted alkaline phosphatase, which is triggered by IL-12 signaling, is present in the supernatant. […]

The subject of the next assay is A549 lung fibroblasts. Briefly: Epithelial to mesenchymal transition gene expression in A549. To be noted: 5 ng/ml TGF-beta1, 48 h, up to 5 micromolar. The class given is cell-based. Here is the method:
To evaluate whether Compounds 01 and 04 could inhibit epithelial to mesenchymal transition (EMT), an in vitro model using A549 lung fibroblasts was utilized. A549 cells were purchased from ATCC (CCL-185), and grown in RPMI media supplemented with 10 percent fetal bovine serum (FBS). On the day of the experiment, ten thousand A549 cells were seeded in eighty microliters total volume into a flat, tissue culture coated, ninety-six-well plate. Drugs, including positive control compounds vactosertib, PF-06952229 and LY3200882, were added in an eight point, one to three dilution series with the highest concentration of each drug being five micromolar, bringing the total volume of each well to ninety microliters. DMSO, which served to dissolve the 10 millimolar stock solution of each drug, was normalized across all wells After one hour of drug pretreatment, recombinant human TGF-beta1 was added to a final concentration of five nanograms per milliliter, bringing the volume to one hundred microliters. Recombinant human TGF-beta 1 was purchased from R&D Systems (7754-BH-005) and its stock solution was prepared according to manufacturer's instructions and diluted in RPMI media supplemented with 10% FBS. The ninety-six well plate with one hundred microliter volume was incubated at 37° C. at 5% CO2 for forty-eight hours. At the end of the incubation period, gene expression levels of various EMT markers were assessed using a custom designed QuantiGene Plex Gene Expression Assay. The genes chosen were CDH1 (E-cadherin), CDH2 (N-Cadherin), SNAI1 (Snail), SNAI2 (Slug), VIM (Vimentin), SPARC, GALNT6, CTNNB1 (beta-catenin), TGFB1, and MAML3.
Briefly, cell lysate was prepared using the QuantiGene Sample Processing Kit —Cultured Cells (QS0100) in the ninety-six well plate. Cell lysates were then subjected to bead hybridization, multiple probe hybridization steps and SAPE labeling following manufacturer's instruction. The plate was read on a Luminex MAGPIX instrument.

For the compound `Cc1nn(CC(F)(F)F)cc1Nc1cc(Nc2cnnc3c(Cl)cccc23)ccn1` [Compound 02, N2-[3-methyl-1-(2,2,2-trifluoroethyl)-1H-pyrazol-4-yl]-N4-(8-chlorocinnolin-4-yl)pyridine-2,4-diamine], the IC50 at ALK5 is under 5 nM. In assay [1], this compound showed an EC50 of 50 to 100 nM.

`Cc1cccc2c(Nc3ccnc(Nc4cccc(N5CCOCC5)c4)c3)cnnc12` [Compound 03, N4-(8-methylcinnolin-4-yl)-N2-[3-(morpholin-4-yl)phenyl]pyridine-2,4-diamine]: the IC50 at ALK5 was in the range of 2 to 5 nM. In addition, the EC50 in assay [1] was under 50 nM. With `Cc1cccc2c(Nc3ccnc(Nc4ccc(N5CCN(C)CC5)cc4)c3)cnnc12` [Compound 06, N4-(8-methylcinnolin-4-yl)-N2-[4-(4-methylpiperazin-1-yl)phenyl]pyridine-2,4-diamine], the IC50 at ALK5 was 2 to 5 nM. Besides, the EC50 in assay [1] is under 50 nM.

As to `Cc1cccc2c(Nc3ccnc(Nc4cccc(C5CCOCC5)c4)c3)cnnc12` [Compound 07, N4-(8-methylcinnolin-4-yl)-N2-[3-(oxan-4-yl)phenyl]pyridine-2,4-diamine], at ALK5, the half-maximal inhibitory concentration (IC50) was in the range of 2 to 5 nM. The compound also registered an EC50 in assay [1] of 50 to 100 nM.

Take `Cc1cccc2c(Nc3ccnc(Nc4ccc(C5CCOCC5)cc4)c3)cnnc12` [Compound 08, N4-(8-methylcinnolin-4-yl)-N2-[4-(oxan-4-yl)phenyl]pyridine-2,4-diamine]: at ALK5, the IC50 lay within 2 to 5 nM. In assay [1], this compound displayed an EC50 of under 50 nM. `Cc1cnc(Nc2ccc(OCCN3CCCC3)cc2)nc1Nc1cccc(S(=O)(=O)NC(C)(C)C)c1` [Fedratinib, fedratinib] had an IC50 with JAK signaling of under 300 nM. Regarding `CC(C)(O)c1cc(Nc2cc(Oc3cn(C4CC4)nc3C3CCOCC3)ccn2)ccn1` [LY3200882, reference compound], in the assay on A549 lung fibroblasts, the “CDH1 (E-Cadherin) gene expression” value is “inhibition of downregulation of CDH1 (E-Cadherin)” and the “expression of the nine genes induced with EMT (CDH2, SNAI1, SNAI2, VIM, SPARC, GALNT6, CTNNB1, TGFB1, MAML3)” value is on record as “inhibition of induction of the nine genes that are induced with EMT”. Turning to `CC(C)c1cnc(-c2cc(Cl)ccc2F)cc1Nc1ccncc1C(=O)NC(CO)CO` [PF-06952229, reference compound], in the assay with A549 lung fibroblasts, the “CDH1 (E-Cadherin) gene expression” value is “inhibition of downregulation of CDH1 (E-Cadherin)” and the “expression of the nine genes induced with EMT (CDH2, SNAI1, SNAI2, VIM, SPARC, GALNT6, CTNNB1, TGFB1, MAML3)” value was “inhibition of induction of the nine genes that are induced with EMT”.

Usually IC50 stands for the concentration that inhibits the measured activity by half. In general, EC50 refers to the concentration at which the effect is half-maximal. A higher EC50 goes with lower potency in that assay.
